Holding throughout (type): cell-based
One experiment concerns P. aeruginosa 53585. As to the kind of experiment: Conventional agar dilution, MIC. The following applies: Pseudomonas aeruginosa. The protocol: (§1) The antibacterial activity is determined by the conventional agar dilution method, and the minimal inhibitory concentration (MIC) is expressed in mcg/ml.
(In general: In agar dilution the substance is mixed into plates at graded concentrations.)

The test system of experiment [1] is E. coli K 12 R 118 (NPT II). As to the kind of experiment: Conventional agar dilution, MIC. To be noted: Escherichia coli. The protocol:
as §1

The next experiment concerns P. aeruginosa B. As to the kind of experiment: Conventional agar dilution, MIC. The following applies: Pseudomonas aeruginosa. How it is done: as §1
The test system of experiment [2] is E. coli K 12 R 112 (NPT I). In words: Conventional agar dilution, MIC. To be noted: Escherichia coli. How it is done: as §1
The subject of a further experiment is P. sp. V 16. In words: Conventional agar dilution, MIC. How it is done: as §1
Another experiment relates to P. aeruginosa 5. As to the kind of experiment: Conventional agar dilution, MIC. To be noted: Pseudomonas aeruginosa. How it is done:
as §1

In the next experiment the test system is P. aeruginosa 19660. In words: Conventional agar dilution, MIC. To be noted: Pseudomonas aeruginosa. How it is done:
as §1

The test system of another experiment is P. aeruginosa 47823. As to the kind of experiment: Conventional agar dilution, MIC. To be noted: Pseudomonas aeruginosa. How it is done: as §1
Experiment [3] deals with Pseudomonas aeruginosa 9229. As to the kind of experiment: Conventional agar dilution, MIC. How it is done: as §1
A further experiment has as its system P. aeruginosa 4. In words: Conventional agar dilution, MIC. To be noted: Pseudomonas aeruginosa. How it is done: as §1
The test system of experiment [4] is Staphylococcus aureus 209 P. In words: Conventional agar dilution, MIC. How it is done: as §1
Another experiment has as its system Proteus mirabilis 525. In words: Conventional agar dilution, MIC. The protocol: as §1
Another experiment has as its system E. coli K 12 R 55 (GNT). In words: Conventional agar dilution, MIC. To be noted: Escherichia coli. How it is done: as §1
Another experiment concerns P. mirabilis V 15. As to the kind of experiment: Conventional agar dilution, MIC. The following applies: Proteus mirabilis, V15. The protocol: as §1
For another experiment, the system named is P. aeruginosa 6. As to the kind of experiment: Conventional agar dilution, MIC. To be noted: Pseudomonas aeruginosa. The protocol:
as §1

The test system of another experiment is P. aeruginosa 53825. As to the kind of experiment: Conventional agar dilution, MIC. The following applies: Pseudomonas aeruginosa. How it is done:
as §1

The next experiment concerns Escherichia coli K 12. In words: Conventional agar dilution, MIC. The following applies: K12. How it is done: as §1
Another experiment relates to Proteus vulgaris. As to the kind of experiment: Conventional agar dilution, MIC. The protocol: as §1
The test system of a further experiment is bacterial strains. As to the kind of experiment: Antibacterial "in vitro" activity, conventional agar dilution (overall). The following applies: in words, compared with neomycin B and paromomycin (1). The protocol: as §1

Usually MIC stands for the lowest concentration that inhibits growth of the organism.

Converted amounts (≈) assume the structure as drawn. Read-outs that look alike come from different tables or passages of the source. Where only a bound is given, the exact number is not on record here.

Regarding `NC[C@@H]1O[C@H](O[C@H]2[C@@H](O)[C@H](O[C@@H]3[C@@H](O)[C@H](N)C[C@H](N)[C@H]3O[C@H]3O[C@H](CN)[C@@H](O)[C@H](O)[C@H]3N)O[C@@H]2CO)[C@H](N)[C@@H](O)[C@@H]1O` [Neomycin B, neomycin B], the MIC was greater than 100 µg/mL in the experiment with P. aeruginosa 53585 (53585); 200 µg/mL (≈ 325 µM) in [1]; greater than 100 µg/mL against P. aeruginosa B; greater than 200 µg/mL in experiment [2]; greater than 100 µg/mL in the experiment with P. sp. V 16; 50 µg/mL (≈ 81.3 µM) in the experiment with P. aeruginosa 5 (5). Moreover, the minimum inhibitory concentration (MIC) was 50 µg/mL (≈ 81.3 µM) against P. aeruginosa 19660 (19660); greater than 100 µg/mL against P. aeruginosa 47823 (47823); 100 µg/mL (≈ 163 µM) in experiment [3] (Pseudomonas aeruginosa, 9229); 25 µg/mL (≈ 40.7 µM) with P. aeruginosa 4 (4); 1.55 µg/mL (≈ 2.52 µM) in experiment [4] (Staphylococcus aureus, 209P); 12.5 µg/mL (≈ 20.3 µM) in the experiment on Proteus mirabilis 525 (Proteus mirabilis, 525). Moreover, the MIC in the experiment with E. coli K 12 R 55 (GNT) is 6.25 µg/mL (≈ 10.2 µM); in the experiment on P. mirabilis V 15, 25 µg/mL (≈ 40.7 µM); against P. aeruginosa 6 (6), 25 µg/mL (≈ 40.7 µM); in the experiment on P. aeruginosa 53825 (53825), greater than 100 µg/mL; in the experiment on Escherichia coli K 12 (Escherichia coli), 6.25 µg/mL (≈ 10.2 µM); in the experiment on Proteus vulgaris, 25 µg/mL (≈ 40.7 µM).

As to `NC[C@@H]1O[C@H](O[C@H]2[C@@H](O)[C@H](O[C@@H]3[C@@H](O)[C@H](N)C[C@H](N)[C@H]3O[C@H]3O[C@H](CO)[C@@H](O)[C@H](O)[C@H]3N)O[C@@H]2CO)[C@H](N)[C@@H](O)[C@@H]1O` [Paromomycin (1), paromomycin], the MIC is greater than 100 µg/mL against P. aeruginosa 53585 (53585); 200 µg/mL (≈ 325 µM) in experiment [1]; greater than 100 µg/mL against P. aeruginosa B; greater than 200 µg/mL in [2]; greater than 100 µg/mL in the experiment on P. sp. V 16; greater than 100 µg/mL in the experiment with P. aeruginosa 5 (5). Further, the MIC in the experiment on P. aeruginosa 19660 (19660) was greater than 100 µg/mL; against P. aeruginosa 47823 (47823), greater than 100 µg/mL; in experiment [3] (Pseudomonas aeruginosa, 9229), greater than 100 µg/mL; in the experiment with P. aeruginosa 4 (4) it was greater than 100 µg/mL; in experiment [4] (Staphylococcus aureus, 209P), 1.55 µg/mL (≈ 2.52 µM); against Proteus mirabilis 525 (Proteus mirabilis, 525), 25 µg/mL (≈ 40.6 µM). For the same compound, the minimal inhibitory concentration (MIC) is 12.5 µg/mL (≈ 20.3 µM) in the experiment on E. coli K 12 R 55 (GNT); 25 µg/mL (≈ 40.6 µM) in the experiment on P. mirabilis V 15; greater than 100 µg/mL against P. aeruginosa 6 (6); greater than 100 µg/mL against P. aeruginosa 53825 (53825); 12.5 µg/mL (≈ 20.3 µM) with Escherichia coli K 12 (Escherichia coli); 50 µg/mL (≈ 81.2 µM) in the experiment on Proteus vulgaris.

For the compound `NC[C@@H]1C[C@H](O)[C@@H](N)[C@@H](O[C@H]2[C@H](O[C@@H]3O[C@H](CO)[C@@H](O[C@H]4O[C@@H](CN)[C@@H](O)[C@H](O)[C@H]4N)[C@H]3O)[C@@H](O)[C@H](N)C[C@@H]2N)O1` [compound 8, 4'-deoxyneomycin B], the minimal inhibitory concentration (MIC) was 25 µg/mL (≈ 41.8 µM) in the experiment on P. aeruginosa 53585 (P. aeruginosa 53585, agar dilution, read-out: MIC); 25 µg/mL (≈ 41.8 µM) in [1]; 25 µg/mL (≈ 41.8 µM) with P. aeruginosa B (P. aeruginosa B, agar dilution, read-out: MIC); greater than 200 µg/mL in [2]; greater than 100 µg/mL in the experiment on P. sp. V 16; 25 µg/mL (≈ 41.8 µM) in the experiment on P. aeruginosa 5 (P. aeruginosa 5, agar dilution, read-out: MIC). The MIC in the experiment with P. aeruginosa 19660 (P. aeruginosa 19660, agar dilution, read-out: MIC) stood at 25 µg/mL (≈ 41.8 µM); in the experiment on P. aeruginosa 47823 (P. aeruginosa 47823, agar dilution, read-out: MIC), 12.5 µg/mL (≈ 20.9 µM); in [3] (Pseudomonas aeruginosa 9229, agar dilution, read-out: MIC) it was 25 µg/mL (≈ 41.8 µM); in the experiment with P. aeruginosa 4 (P. aeruginosa 4, agar dilution, read-out: MIC), 12.5 µg/mL (≈ 20.9 µM); in experiment [4] (Staphylococcus aureus 209 P, agar dilution, read-out: MIC), 0.77 µg/mL (≈ 1.29 µM); in the experiment with Proteus mirabilis 525 (Proteus mirabilis 525, agar dilution, read-out: MIC), 6.2 µg/mL (≈ 10.4 µM). Moreover, the MIC against E. coli K 12 R 55 (GNT) was determined as 3.12 µg/mL (≈ 5.21 µM); in the experiment on P. mirabilis V 15 (P. mirabilis V 15, agar dilution, read-out: MIC), 12.5 µg/mL (≈ 20.9 µM); with P. aeruginosa 6 (P. aeruginosa 6, agar dilution, read-out: MIC), 12.5 µg/mL (≈ 20.9 µM); with P. aeruginosa 53825 (P. aeruginosa 53825, agar dilution, read-out: MIC) it was 50 µg/mL (≈ 83.5 µM); with Escherichia coli K 12 (Escherichia coli K 12, agar dilution, read-out: MIC) it was 3.12 µg/mL (≈ 5.21 µM); in the experiment with Proteus vulgaris (agar dilution, read-out: MIC) it was 12.5 µg/mL (≈ 20.9 µM). For the same compound, the “antibacterial "in vitro" activity” value in the experiment with bacterial strains (listed as 4'-Deoxy-neomycin B (8)) was “higher and broader when compared with those of neomycin B and paromomycin (1)”; with bacterial strains (listed as 4'-deoxy-neomycin B (8)), “higher and broader when compared with that of neomycin B”.

The values above are taken from patent US4247687A, “Aminoglycoside antibiotic derivatives and process for their preparation” (Farmitalia Carlo Erba S.p.A., priority 1979, dated 1981).
